{"source": "paper PMC6272155", "about": "“Plasmin Regulation through Allosteric, Sulfated, Small Molecules” (Molecules, 2015)", "assay_type_in_all_cases": "biochemical", "key": {"human Lys-plasmin": {"target": "T1, human Lys-plasmin (Homo sapiens, UniProt P00747)", "T1 construct": "purchased Haematologic Technologies (Essex Junction, VT, USA)", "T1 sequence (P00747 581-810 limits assumed)": "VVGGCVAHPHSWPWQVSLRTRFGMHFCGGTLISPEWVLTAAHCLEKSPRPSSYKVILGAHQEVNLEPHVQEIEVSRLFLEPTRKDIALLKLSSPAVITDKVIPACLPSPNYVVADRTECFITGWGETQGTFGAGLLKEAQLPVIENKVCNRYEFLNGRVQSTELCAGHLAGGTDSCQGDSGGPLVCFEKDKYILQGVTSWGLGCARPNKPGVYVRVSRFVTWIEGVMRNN", "T1 sequence (P00747 97-580 partner limits assumed)": "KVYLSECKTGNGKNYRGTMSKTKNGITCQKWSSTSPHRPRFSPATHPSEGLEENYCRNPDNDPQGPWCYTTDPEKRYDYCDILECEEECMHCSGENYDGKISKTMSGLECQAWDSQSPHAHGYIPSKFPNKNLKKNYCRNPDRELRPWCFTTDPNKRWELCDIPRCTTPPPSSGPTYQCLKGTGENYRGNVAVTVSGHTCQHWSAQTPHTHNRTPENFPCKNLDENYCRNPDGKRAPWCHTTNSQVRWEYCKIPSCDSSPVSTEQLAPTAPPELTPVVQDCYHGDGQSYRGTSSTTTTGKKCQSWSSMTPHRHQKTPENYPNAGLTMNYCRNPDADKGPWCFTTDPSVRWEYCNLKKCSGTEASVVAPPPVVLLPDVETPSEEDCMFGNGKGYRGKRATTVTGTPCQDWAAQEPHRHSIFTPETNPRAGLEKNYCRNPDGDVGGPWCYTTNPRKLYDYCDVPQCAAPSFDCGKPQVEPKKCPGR", "assay": "Direct inhibition of human Lys-plasmin, chromogenic substrate (Spectrozyme PL) hydrolysis assay", "method": "Important to emphasize here that the potency of NSGM-based inhibitors was evaluated by measuring their IC50's (X-axis), whereas the efficacy was assessed by measuring the overall change in residual plasmin activity (%) (ΔY = YM − Y0) (Y-axis).\nDirect inhibition of human Lys-plasmin was measured using a chromogenic substrate hydrolysis assay on a microplate reader (FlexStation III, Molecular Devices, Sunnyvale, CA, USA), as reported earlier. Briefly, to each well of a 96-well microplate containing 85 µL of 50 mM Tris-HCl buffer, pH 7.4, containing 150 mM NaCl, 0.1% PEG8000, and 0.02% Tween80 at 37 °C was added 5 µL potential NSGM-based inhibitor (20–100 mM aqueous solution) (or vehicle alone) and 5 µL enzyme. The final concentration of the enzyme was 20 nM. After 5 min incubation, 5 µL of 1 mM Spectrozyme PL was rapidly added and the residual enzyme activity was measured from the initial rate of increase in A405. Relative residual enzyme activity (Y) as a function of the concentration of sulfated molecule was fitted using logistic equation 1 to obtain the potency (IC50), efficacy (ΔY) and Hill slope (HS) of inhibition. In this equation, YM and Y0 are the maximal and minimal values of Y: (1) Y = Y0+YM−Y0/1+10^(log[Inhibitor]0 − logIC50) ×HS […]\nIn this equation, Y is the ratio of residual plasmin activity in the presence of inhibitor to that in its absence (fractional residual activity). YM and Y0 are the maximum and minimum possible values of the fractional residual proteinase activity. The difference between these two values is used to evaluate the inhibitor’s efficacy to reduce the residual enzyme activity under the assay condition.\nDirect inhibition of human plasmin by sulfated small molecules. Direct inhibition of plasmin was measured using a chromogenic substrate hydrolysis assay on a microplate reader (FlexStation III, Molecular Devices), as reported earlier. Briefly, to each well of a 96-well microplate containing […]\nTween80 at 37 °C was added 5 µL potential inhibitor (or vehicle alone) and 5 µL enzyme. The final concentration of the enzyme was 20 nM. After 5 min incubation, 5 µL of 1 mM Spectrozyme PL was rapidly added and the residual enzyme activity was measured from the initial rate of increase in A405.\nRelative residual enzyme activity (Y, activity in the presence of inhibitor to that in its absence) as a function of the concentration of SPGG derivative was fitted using logistic Equation (1) to obtain the potency (IC50), efficacy (ΔY) and Hill slope (HS) of inhibition. In this equation, YM and Y0 are the maximal and minimal values of Y."}, "human plasmin": {"target": "T2, human plasmin (Homo sapiens, UniProt P00747)", "T2 construct": "purchased Haematologic Technologies (Essex Junction, VT, USA)", "T2 sequence (P00747 581-810 limits assumed)": "as the sequence (P00747 581-810 limits assumed) above", "T2 sequence (P00747 97-580 partner limits assumed)": "as the sequence (P00747 97-580 partner limits assumed) above", "assay": "Michaelis-Menten kinetics of Spectrozyme PL hydrolysis by human plasmin in presence of inhibitor", "method": "The initial rate of Spectrozyme PL hydrolysis by human plasmin (20 nM) was monitored from the linear increase in absorbance at 405 nm corresponding to less than 10% consumption of the substrate. […] The data were fitted by Michaelis-Menten Equation (2) to determine KM,app and VMAX: (2) V= VMAX [S]/KM+ [S] […]\nMichaelis-Menten kinetics of Spectrozyme PL hydrolysis by plasmin in the presence of […]\nThe initial rate of Spectrozyme PL hydrolysis by human plasmin (20 nM) was monitored from the linear increase in absorbance at 405 nm corresponding to less than 10% consumption of the substrate. The initial rate was measured as a function of various concentrations of the substrate (0–400 μM) […]\n50 mM Tris-HCl buffer, pH 7.4, 150 mM NaCl at 37 °C. The data were fitted by Michaelis-Menten Equation (2) to determine KM,app and VMAX. […]"}, "factor Xa": {"target": "factor Xa (Homo sapiens, UniProt P00742)", "sequence (P00742 235-488 limits assumed)": "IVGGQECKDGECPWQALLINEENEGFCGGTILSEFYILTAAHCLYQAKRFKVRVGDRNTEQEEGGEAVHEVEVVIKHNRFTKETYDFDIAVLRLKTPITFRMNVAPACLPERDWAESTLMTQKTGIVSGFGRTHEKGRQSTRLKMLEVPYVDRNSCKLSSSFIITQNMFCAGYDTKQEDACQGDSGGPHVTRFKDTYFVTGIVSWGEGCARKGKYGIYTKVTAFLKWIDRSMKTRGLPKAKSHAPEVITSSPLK", "sequence (P00742 41-179 partner limits assumed)": "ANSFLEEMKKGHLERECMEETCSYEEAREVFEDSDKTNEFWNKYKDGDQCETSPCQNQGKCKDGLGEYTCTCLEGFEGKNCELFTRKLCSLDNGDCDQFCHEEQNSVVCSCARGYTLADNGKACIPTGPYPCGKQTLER", "assay": "Direct inhibition of factor Xa, chromogenic substrate (Spectrozyme FXa) hydrolysis assay", "method": "(§1) The rationale behind targeting an allosteric site on plasmin was to achieve inhibition specificity over the closely related serine proteases. In contrast to active sites, allosteric sites are not as highly conserved and therefore present a powerful opportunity for discovering a selective modulator of enzyme function. […] Using appropriate small peptide-based chromogenic substrates, the fractional residual thrombin and factor Xa activities were measured under the physiological condition of pH 7.4 and 37 °C.\n(§2) Briefly, to each well of a 96-well microplate containing 185 μL of 20–50 mM Tris-HCl buffer, pH 7.4, containing 100–150 mM NaCl, 0.1% PEG8000 and 0.02% Tween80 at either 25 °C (thrombin) or 37 °C (factor Xa) was added 5 μL of 10–20 mM inhibitor (or vehicle) and 5 μL of the enzyme. The final concentrations of the enzymes were 6 nM (thrombin) and 1.09 nM (factor Xa). After 10 min incubation, 5 μL 1.0 mM Spectrozyme TH or 2.5 mM Spectrozyme FXa, was rapidly added and the residual enzyme activity was measured from the initial rate of increase in A405. Relative residual enzyme activity (Y, activity in the presence of inhibitor to that in its absence) as a function of the concentration of inhibitor was measured."}, "thrombin": {"target": "thrombin (Homo sapiens, UniProt P00734)", "assay": "Direct inhibition of thrombin, chromogenic substrate (Spectrozyme TH) hydrolysis assay", "conditions": "pH 7.4, 37 °C; read-out: IC50 against thrombin", "method": "as §1, §2"}}, "data": [{"smiles": "O=c1c(OS(=O)(=O)O)c(-c2ccc(OS(=O)(=O)O)c(OS(=O)(=O)O)c2)oc2cc(OS(=O)(=O)O)cc(OCCCCOc3cc(OS(=O)(=O)O)cc4oc(-c5ccc(OS(=O)(=O)O)c(OS(=O)(=O)O)c5)c(OS(=O)(=O)O)c(=O)c34)c12", "note": "[compound 52, 5,5'-(Butane-1,4-diylbis(oxy))bis(2-(3,4-O,O-disulfonato-phenyl)-3,7-O,O-disulfonato-4H-chromen-4-one)]", "values": [{"measurement": "IC50", "setting": "human Lys-plasmin; human plasmin 20 nM, 50 mM Tris-HCl pH 7.4, 150 mM NaCl, 37 °C, Spectrozyme PL", "value": "76 ± 12", "unit": "µM"}, {"measurement": "HS (Hill slope)", "setting": "human Lys-plasmin; logistic fit, pH 7.4, 37 °C", "value": "1.0 ± 0.2"}, {"measurement": "Emax", "setting": "human Lys-plasmin; pH 7.4, logistic fit, pH 7.4, 37 °C, read-out: ΔY% (efficacy, YM − Y0)", "value": 72, "unit": "%"}, {"measurement": "mechanism of plasmin inhibition", "setting": "human plasmin; Michaelis-Menten kinetics, pH 7.4, 37 °C", "value": "uncompetitive inhibition"}, {"measurement": "decrease in KM relative to absence of inhibitor", "setting": "human plasmin; inhibitor 0 to 150 μM", "value": "approximately 3.5 fold"}, {"measurement": "VMAX of Spectrozyme PL hydrolysis", "setting": "human plasmin; inhibitor 15 μM", "value": "52.9 ± 2.9", "unit": "mAU/min"}, {"measurement": "VMAX of Spectrozyme PL hydrolysis", "setting": "human plasmin; inhibitor 30 μM", "value": "37.0 ± 1.5", "unit": "mAU/min"}, {"measurement": "VMAX of Spectrozyme PL hydrolysis", "setting": "human plasmin; inhibitor 75 μM", "value": "34.8 ± 1.5", "unit": "mAU/min"}, {"measurement": "VMAX of Spectrozyme PL hydrolysis", "setting": "human plasmin; inhibitor 150 μM", "value": "26.4 ± 0.8", "unit": "mAU/min"}, {"measurement": "selectivity index for plasmin over factor Xa", "setting": "factor Xa", "value": "about 5 fold"}, {"measurement": "IC50", "setting": "factor Xa; pH 7.4, 37 °C, read-out: IC50 against factor Xa", "value": "> 250", "unit": "µM"}, {"measurement": "IC50", "setting": "thrombin", "value": "> 500", "unit": "µM"}]}]}
